Results as given in publication PMC12011790, “Synergistic chemo-immunotherapy for osteosarcoma via a pH-responsive multi-component nanoparticle system” (Frontiers in Pharmacology, 2025).

Tests used:
[1] = tested on: LM8 murine osteosarcoma cells; experiment: CCK-8 cell viability; assay type: cell-based; details: 48 h, pH not stated, mean ± SD, n = 3
Experimental: The LM8 murine osteosarcoma cell line, derived from C3H/He mice, was purchased from HyCyte™ (Suzhou, China). LM8 cells were maintained in Dulbecco’s modified Eagle’s medium (DMEM, Gibco, NY, United States) supplemented with 10% fetal bovine serum (FBS, Gibco). Cells were cultured at 37°C in an incubator under 5% CO2.
LM-8 cells were seeded at a density of 1 × 10^6 cells/mL in a 96-well plate. After 24 h incubation, the culture medium was replaced with 100 μL of medium containing serial dilutions of different treatment samples. After 48 h incubation, 10 μL of the CCK-8 reagent (Dojindo, Kyushu, Japan) was added into each well and incubated for further 2 h at 37°C. The absorbance of each sample was measured at 450 nm using a multifunction microplate reader (Biotek, VT, United States).

[2] = Body weight during treatment (systemic toxicity); assay type: in vivo, C3H/HeJ mice; details: LM8-bearing mice; tail vein, DOX equivalent 10 mg/kg every other day, 7 doses
Experimental: (§1) Each group received the corresponding treatment via tail vein injection, with a DOX equivalent dose of 10 mg/kg administered every other day for a total of 7 doses. Tumor volume and mouse body weight were recorded every other day during the treatment. On day 14, the mice were euthanized under anesthesia, and the tumors were excised and weighed for further analysis. The tumor was further stained with hematoxylin and eosin (H&E) after mice sacrificed.

[3] = tested on: LM8 cells; experiment: Calreticulin (CRT) surface exposure, flow cytometry; assay type: cell-based, murine; details: 10 μM DOX or equivalent, 24 h, mean ± SEM by Figure 3 legend
Experimental: (§2) The immunogenic cell death (ICD) biomarkers, including calreticulin (CRT), high-mobility group box 1 (HMGB1), and adenosine triphosphate (ATP), were analyzed. LM-8 cells were seeded in 24-well plates at a density of 1 × 10^5 cells per well, and the cells were allowed to grow to an appropriate confluence.
After treatment, the cells were digested, collected, and washed twice with cold PBS. To determine the surface expression of CRT, the cells were blocked with CD16/32 antibody for 10 min, incubated with Alexa 488-anti-CRT antibody (EPR3924, 1:500 v/v, Abcam) for 15 min at 4°C, washed once with PBS, resuspended with PBS, and detected by flow cytometry.

[4] = cumulative doses exceeding 550 mg/m^2; ref Alberts and Garcia, 1997; Treat et al., 1990; cited from earlier work
Description: A major challenge in OS treatment lies in the toxicity associated with conventional chemotherapeutic agents. […] Although reducing DOX dosage can alleviate the cardiotoxicity, this reduction risks compromising the therapeutic efficacy, particularly its ability to induce immunogenic cell ...

[5] = tested on: LM8 osteosarcoma; experiment: Antitumor efficacy in LM8-bearing osteosarcoma model; assay type: in vivo; details: LM8-bearing C3H/HeJ mice, tail vein, DOX equivalent 10 mg/kg every other day, 7 doses, n = 5
Experimental: To investigate the in vivo antitumor effects, male C3H/HeJ mice (8–10 weeks old) were purchased from GemPharmatech (Nanjing, China). All animal experiments were conducted with the relevant institutional guidelines of Jiangsu University, and were approved by the Institutional Animal Care And Use Committees of Jiangsu University (UJS-IACUC-2024080202).
[…] LM8-bearing OS model was established by injected subcutaneously 1 × 10^7 LM8 cells into the backs of mice. Tumor growth was allowed to proceed for approximately 7 days prior to treatment until the tumors reached a measurable size. Tumor size was monitored using a caliper, with tumor volume calculated according to the formula: (length × width^2)/2.
as §1

[6] = tested on: immune cell populations in the tumor, and tumor-draining lymph nodes; experiment: Flow cytometric immune cell profiling of tumor and tumor-draining lymph nodes; assay type: in vivo, C3H/HeJ mice; details: post-treatment, flow cytometry
Description: Flow cytometry was applied to characterize the change in immune cell populations in the tumor, and tumor-draining lymph nodes (TDLNs). Excised tumors were harvested, homogenized and consecutively strained through 70-μm filters to obtain single cell suspensions, while the lymph nodes were manually dissociated through a 40-μm filter to obtain a single cell suspension. Cells were stained with fluorescent antibodies to identify immune cell pollutions.
Single-cell suspensions of TDLNs were stained with CD11c (clone N418; Biolegend), CD80 (clone 16-10A1; Biolegend), CD86 (clone GL1; Biolegend) for the analysis of mature DCs.
Single-cell suspensions of tumor tissues were stained with CD3 (clone 145-2C11; BD), CD4 (clone RM4-5; BD), CD8 (clone 53–6.7; Biolegend), CD62L (clone MEL-14; Biolegend), or CD44 (clone 1M7; Biolegend) antibodies for flow cytometry analysis. For intracellular cytokine and marker staining, after extracellular staining, cells were fixed and permeabilized with BD Cytofix/Cytoperm kit (BD Biosciences) and incubated with fluorescently conjugated antibodies against IFNγ (clone XMG1.2; Biolegend) or granzyme B (clone GB11; Biolegend) antibodies. […] Samples were run on a Beckman Coulter Gallios™ flow cytometer and analyzed using FlowJo software.

[7] = tested on: LM8 cells; experiment: Extracellular ATP release, bioluminescence kit; assay type: cell-based, murine; details: LM8 culture supernatant, 10 μM DOX or equivalent, 24 h, mean ± SEM by Figure 3 legend
Experimental: as §2
On the other hand, additional sets of cells received identical treatments were employed to determine the released HMGB1 and ATP. Briefly, culture supernatant was collected and centrifuged to remove cell debris. Subsequently, the extracellular HMGB1 was quantified using an enzyme-linked immunosorbent assay (ELISA) kits (R&D systems, China), whereas the supernatant ATP was quantified using a bioluminescence kit (No. S0026, Beyotime, China) and measured by a multifunction microplate reader.

[8] = Stability (retention) of the PD-1/PD-L1 peptide in PBS and FBS-containing PBS, HPLC; assay type: in vitro ADME; details: 48 h; for peptide content remaining: peptide conjugated in co-loaded nanoparticles, FBS-containing PBS (50% FBS), mean ± SD, n = 3, SD
Description: […] Peptide content was quantified using high-performance liquid chromatography (HPLC). This analysis aimed to determine peptide degradation in PBS and FBS-containing media, considering the potential influence of protease activity present in serum.

Molecule	IC50 [1]	body weight change [2]	CRT exposure (% of cells) [3]	long-term survivors affected by cardiotoxicity [4]	tumor growth (tumor volume) ([5]; 14 days)	tumor mass at end of study ([5]; day 14)	infiltrated CTLs (CD3+CD8+) in tumor tissue [6]	extracellular ATP level [7]	peptide remaining intact ([8]; peptide conjugated as DSPE-PEG-peptide in co-loaded nanoparticles, PBS, 37°C, n = 3)	peptide content remaining ([8]; 25°C)	peptide content remaining ([8]; 37°C)
COc1cccc2c1C(=O)c1c(O)c3c(c(O)c1C2=O)C[C@@](O)(C(=O)CO)C[C@@H]3O[C@H]1C[C@H](N)[C@H](O)[C@H](C)O1.Cl [free DOX, Doxorubicin hydrochloride]	13.3 ± 1.24 µM	significant weight loss	73.04% ± 6.35%	approximately 30%	moderate reduction in tumor growth	moderate reductions in tumor mass	moderate CTLs infiltration	266.05 ± 42.73 nM	–	–	–
CGGGGSHFSASYDKYAEKF [PD-1/PD-L1 targeting peptide]	–	–	–	–	–	–	–	–	over 90%	78.57% ± 0.81%	72.32% ± 1.26%
